Molecules are shown by their SMILES. pKi: −log10 of the molar value. Like-named read-outs stand apart in the source and are kept apart here. Bounds are passed on as bounds.

The target in one experiment is α5β3γ2 GABAA R (Homo sapiens, UniProt P18507+P31644). Put plainly: Binding activity on GABAA R: inhibition of [3H]Ro15-1788 binding, α5 containing receptor. As to the method: Tissue culture and Membrane Preparation: The binding was performed on Ltk cells stably expressing GABAA R: […], α2β3γ2, α3β3γ2 and α5β3γ2 (provided by Merck Co., NJ, USA). Cells were seeded in 100 mm culture plates in DMEM/F12 medium containing 10% serum and antibiotics in 5% CO2 and allowed to grow for 1-2 days. GABAAR expression was then induced by dexamethasone as follows: 0.5 μM for 1 day for α5 containing and 2 μM for 3 days for α1, α2 and α3 containing GABAARs. After induction, cells were collected by scraping into Dulbecco's Phosphate buffered saline (DPBS, pH 7.4, Invitrogen, Carlsbad, CA, USA) and centrifuged at 150×g for 10 min. The pellet was washed twice by re-suspension and centrifugation. The cell pellets from at least 5 different preps were combined, suspended in the binding assay buffer (50 mM KH2PO4; 1 mM EDTA; 0.2 M KCl, pH 7.4) and membranes prepared by sonication (3-5 times, 30 sec) using Branson Sonifier 150 (G. Heinmann, Germany). Protein content was determined using BCA assay (Bio-Rad Labs, Reinach, Switzerland) with Bovine Serum Albumin (Sigma Aldrich, St. Louis, MO, USA) as the standard. Aliquots were prepared and stored at −20° C. for further use in binding assays.
Chain of α5β3γ2 GABAA R (P31644 32-462): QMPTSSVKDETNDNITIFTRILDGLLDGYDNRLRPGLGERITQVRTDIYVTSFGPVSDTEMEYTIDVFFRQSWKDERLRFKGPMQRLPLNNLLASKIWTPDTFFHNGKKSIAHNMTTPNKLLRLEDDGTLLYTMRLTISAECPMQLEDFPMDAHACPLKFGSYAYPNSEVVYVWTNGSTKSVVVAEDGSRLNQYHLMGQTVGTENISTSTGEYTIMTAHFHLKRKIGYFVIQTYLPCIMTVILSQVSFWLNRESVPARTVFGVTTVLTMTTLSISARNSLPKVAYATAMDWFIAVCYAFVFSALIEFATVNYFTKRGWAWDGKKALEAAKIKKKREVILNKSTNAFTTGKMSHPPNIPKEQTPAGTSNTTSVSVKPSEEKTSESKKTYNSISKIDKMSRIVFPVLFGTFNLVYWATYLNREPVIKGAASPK
Chain of α5β3γ2 GABAA R (P28472 26-473 partner): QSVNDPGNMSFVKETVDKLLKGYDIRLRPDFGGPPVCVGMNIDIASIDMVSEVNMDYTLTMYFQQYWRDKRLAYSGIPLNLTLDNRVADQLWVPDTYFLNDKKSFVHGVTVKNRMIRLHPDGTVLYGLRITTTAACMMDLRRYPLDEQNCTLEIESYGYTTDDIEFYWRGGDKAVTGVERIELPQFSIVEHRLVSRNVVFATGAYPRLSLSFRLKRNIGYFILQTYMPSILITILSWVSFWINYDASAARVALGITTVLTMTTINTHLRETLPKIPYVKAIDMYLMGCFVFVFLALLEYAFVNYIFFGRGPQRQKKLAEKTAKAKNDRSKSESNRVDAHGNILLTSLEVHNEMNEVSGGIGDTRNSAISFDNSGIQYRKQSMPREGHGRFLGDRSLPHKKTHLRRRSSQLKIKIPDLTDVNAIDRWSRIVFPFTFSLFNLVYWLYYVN
Chain of α5β3γ2 GABAA R (P18507 40-475): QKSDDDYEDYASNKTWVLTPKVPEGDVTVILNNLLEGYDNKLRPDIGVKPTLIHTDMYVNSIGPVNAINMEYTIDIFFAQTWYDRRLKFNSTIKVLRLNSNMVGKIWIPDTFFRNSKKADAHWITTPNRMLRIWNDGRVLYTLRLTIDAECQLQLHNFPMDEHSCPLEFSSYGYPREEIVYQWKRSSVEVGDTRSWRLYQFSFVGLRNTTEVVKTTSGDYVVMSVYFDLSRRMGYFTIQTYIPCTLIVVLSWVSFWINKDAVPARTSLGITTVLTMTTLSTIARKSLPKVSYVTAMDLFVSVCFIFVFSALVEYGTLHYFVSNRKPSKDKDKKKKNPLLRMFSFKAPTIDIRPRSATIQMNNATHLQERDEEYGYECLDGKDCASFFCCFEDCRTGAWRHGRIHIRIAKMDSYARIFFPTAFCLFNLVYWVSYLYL
Ligand Binding: Saturation binding curves were obtained by incubating membranes with increasing concentrations (0.01-8 nM) of [^3H]Rol5-1788 (Flumazepil, 75-85 Ci/mmol, PerkinElmer, MA, USA), with nonspecific binding measured in the presence of 10 μM diazepam.
All binding assays were performed for 1 h at 4° C. in assay buffer. The total assay volume was 0.5 ml containing 0.2 mg/ml protein for α5 and 0.4 mg/ml for α1, α2, and α3 containing GABAAR membranes. Incubations were terminated by filtration through GF/B filters using a 24-Cell Harvestor (Brandel, Gaithersburg, MD, USA) followed by 3 washes with ice-cold assay buffer. Filters were transferred to scintillation vials, 5 ml scintillation liquid added, vortex-mixed and kept in dark. Next day, radioactivity was obtained using a scintillation counter (Beckman Coulter, Brea, CA, USA). All assays were performed in triplicate.
Data Analyses: Saturation and inhibition curves were obtained using GraphPad Prism software (GraphPad Software, Inc., CA, USA).

The next experiment deals with T1, GABAA R (α5β2γ2) (Homo sapiens, UniProt P18507+P31644).
T1 construct: expressed in transfected cells
T1 sequence (P31644 32-462): as the sequence (P31644 32-462) above
T1 sequence (P47870 25-512 partner limits assumed): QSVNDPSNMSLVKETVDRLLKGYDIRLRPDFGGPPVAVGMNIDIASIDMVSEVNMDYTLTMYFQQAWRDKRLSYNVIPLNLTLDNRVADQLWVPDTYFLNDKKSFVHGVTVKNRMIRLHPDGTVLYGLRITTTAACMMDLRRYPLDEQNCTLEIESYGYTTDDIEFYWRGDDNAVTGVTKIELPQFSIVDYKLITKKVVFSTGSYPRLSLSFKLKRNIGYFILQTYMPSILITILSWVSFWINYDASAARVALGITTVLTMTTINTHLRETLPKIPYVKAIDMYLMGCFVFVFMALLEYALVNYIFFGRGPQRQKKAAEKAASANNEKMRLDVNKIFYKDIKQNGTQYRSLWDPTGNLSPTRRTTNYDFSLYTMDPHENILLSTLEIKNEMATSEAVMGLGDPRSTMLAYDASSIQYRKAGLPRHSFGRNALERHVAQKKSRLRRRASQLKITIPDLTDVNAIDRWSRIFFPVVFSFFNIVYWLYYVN
T1 sequence (P18507 40-475): as the sequence (P18507 40-475) above
The experiment is described as follows: Positive allosteric modulator activity: potentiation of EC20 GABA current in oocytes. The experiment is classed as cell-based. The conditions noted are these: read-out: GABA α5 Functional Data: potentiation. As for the experimental part:
On day 1, 1 ng/32 nL of GABAA α5β2γ2 cDNA was injected into one oocyte. Test starts on day 2. The cDNA injected to the oocytes was a mix of alpha, beta and gamma, their ratio is 1:1:10 (by weight) and the total weight of the mixed 3 subunits to be injected in one oocyte was 1 ng in 32 nl volume. The injected oocytes can also be tested on day 3. In such case, the cDNA amount injected to the oocytes should be reduced by 20%.
Compounds of the present disclosure were tested using the following procedures.
8 oocytes were placed in 8 chambers of OpusXpress and superfused with Modified Barth's Saline (MBS) at 3 mL/min. Glass electrodes back-filled with 3M KCl (0.5-3 megaohms) were used. Membrane potential of oocytes was voltage-clamped at −60 mV. • 2).
Control Test (Diazepam or Methyl 3,5-Diphenylpyridazine-4-Carboxylate) • 1). New oocytes was used to run new test. • 2). […] Oocytes were washed with MBS for 5-10 min. • 4). […] Itest was divided by IGABA to obtain potentiation (%).
Test Compounds at Multiple Doses • 1). Repeat the above steps 1), 2) and 3) in the control test. • 2). […] Divide Itest by IGABA to obtain potentiation (%). • 3). Discard all tested oocytes, new oocytes were used and the above steps 1) and 2) were repeated to test second concentration of the same compound. Each oocyte was used for only one concentration test for a single test compound. The steps were repeated for other test compounds.

The mark [1] stands for this setting: ranges of the column heads, [3H]Ro15-1788, Ltk cell membranes.

Consider `COc1ccc2c(c1)-c1c(cnn1Cc1ccccc1)Cc1c(-c3nc(C)no3)ncn1-2` [Compound 7], for which, at α5β3γ2 GABAA R (setting [1]), the pKi is above 7.00. Also, the activation at 0.1 µM on GABAA R (α5β2γ2) lay in the range of 20 to 50%. Consider `COc1ccc2c(c1)-c1[nH]ncc1Cc1c(-c3nc(C)no3)ncn1-2` [Compound 9], for which the pKi at α5β3γ2 GABAA R (setting [1]) is above 7.00. Also, the activation at 0.1 µM at GABAA R (α5β2γ2) fell in the range of 5 to 20%. For `CCn1cc2c(n1)-c1cc(OC)ccc1-n1cnc(-c3noc(C4(OC)CC4)n3)c1C2` [Compound 340], the pKi on α5β3γ2 GABAA R (setting [1]) is above 7.00. As to `CCOC(C)(C)c1nc(-c2ncn3c2Cc2cn(C)nc2-c2cc(OC)ccc2-3)no1` [Compound 341], the pKi on α5β3γ2 GABAA R was above 7.00. In turn, `COCCc1nc(-c2ncn3c2Cc2cn(C)nc2-c2cc(OC)ccc2-3)no1` [Compound 342] showed a pKi on α5β3γ2 GABAA R (setting [1]) above 7.00. As to `COc1ccc2c(c1)-c1nn(CCOC(F)(F)F)cc1Cc1c(-c3noc(C(C)(C)OC)n3)ncn1-2` [Compound 343], on α5β3γ2 GABAA R, the pKi was above 7.00. On the same count and under the same terms, to `COc1ccc2c(c1)-c1nn(C)cc1Cc1c(-c3noc(CC(C)(C)OC)n3)ncn1-2` [Compound 344] belongs 6.00 to 7.00; to `Cn1cc2c(n1)-c1cc(Cl)ccc1-n1cnc(-c3nc(CN4CCCC4)co3)c1C2` [Compound 345], above 7.00.

At α5β3γ2 GABAA R (setting [1]), `Cn1cc2c(n1)-c1cc(Cl)ccc1-n1cnc(-c3nc(COC4CCOCC4)co3)c1C2` [Compound 346] gave a pKi above 7.00. In turn, `COc1ccc2c(c1)-c1nn(C)cc1Cc1c(-c3noc(CN4CCCC4)n3)ncn1-2` [Compound 347] gave a pKi at α5β3γ2 GABAA R above 7.00. On the same count and under the same terms, to `COc1ccc2c(c1)-c1nn(C)cc1Cc1c(-c3noc(CN4CCOCC4)n3)ncn1-2` [Compound 348] belongs above 7.00. On the same count and under the same terms, to `CCn1cc2c(n1)-c1cc(Cl)ccc1-n1cnc(-c3noc(CN(C)C)n3)c1C2` [Compound 349] belongs above 7.00; to `CCn1cc2c(n1)-c1cc(Cl)ccc1-n1cnc(-c3noc(CN4CCCC4)n3)c1C2` [Compound 350], above 7.00; to `COCc1noc(-c2ncn3c2Cc2cn(CC4CCOC4)nc2-c2cc(Cl)ccc2-3)n1` (centres unmarked) [Compound 351], above 7.00.

The molecule `COc1ccc2c(c1)-c1nn(C)cc1Cc1c(-c3nc(C4(C)CCOCC4)no3)ncn1-2` [Compound 352] had a pKi at α5β3γ2 GABAA R above 7.00. Molecule `CCC(C)(OC)c1nc(-c2ncn3c2Cc2cn(C)nc2-c2cc(OC)ccc2-3)no1` (centres unmarked) [Compound 353] had a pKi on α5β3γ2 GABAA R (setting [1]) above 7.00. On α5β3γ2 GABAA R, `COc1ccc2c(c1)-c1nn(C)cc1Cc1c(-c3noc(C4(OC)CCOC4)n3)ncn1-2` (centres unmarked) [Compound 354] gave a pKi above 7.00.

On to `COc1ccc2c(c1)-c1nn(C)cc1Cc1c(-c3noc(C4(OC)CCCC4)n3)ncn1-2` [Compound 355], for which, at α5β3γ2 GABAA R, the pKi was above 7.00. On the same count and under the same terms, to `COc1ccc2c(c1)-c1nn(C)cc1Cc1c(-c3noc(C4(F)CCOC4)n3)ncn1-2` (centres unmarked) [Compound 356] belongs above 7.00.

`CCOC1(c2nc(-c3ncn4c3Cc3cn(C)nc3-c3cc(OC)ccc3-4)no2)CC1` [Compound 357]: the pKi at α5β3γ2 GABAA R was above 7.00.

Consider `CC(=O)N(C)Cc1coc(-c2ncn3c2Cc2cn(C)nc2-c2cc(Cl)ccc2-3)n1` [Compound 358], for which, at α5β3γ2 GABAA R, the pKi is above 7.00. `COc1ccc2c(c1)-c1nn(C)cc1Cc1c(-c3noc(COC(F)(F)F)n3)ncn1-2` [Compound 359] had a pKi on α5β3γ2 GABAA R above 7.00. The same measure, in the same setting: the value for `COc1ccc2c(c1)-c1nn(C)cc1Cc1c(-c3noc(Cn4cccc4)n3)ncn1-2` [Compound 360] was above 7.00; that for `COc1ccc2c(c1)-c1nn(C)cc1Cc1c(-c3noc(Cn4cccn4)n3)ncn1-2` [Compound 361] was above 7.00.

In turn, `Clc1ccc2c(c1)-c1nn(CC3CCCO3)cc1Cc1c(-c3noc(C4CCOCC4)n3)ncn1-2` (centres unmarked) [Compound 362] showed a pKi at α5β3γ2 GABAA R above 7.00. The molecule `COc1ccc2c(c1)-c1nn(C)cc1Cc1c(-c3noc(C4(O)CC4)n3)ncn1-2` [Compound 363] gave a pKi at α5β3γ2 GABAA R (setting [1]) above 7.00. In the case of `Cn1cc2c(n1)-c1cc(Cl)ccc1-n1cnc(-c3nc(CN4CCCC4=O)co3)c1C2` [Compound 364], the pKi on α5β3γ2 GABAA R is above 7.00.

As for `CC1(c2nc(-c3ncn4c3Cc3cn(CC5CCCO5)nc3-c3cc(Cl)ccc3-4)no2)CCOCC1` (centres unmarked) [Compound 365], the pKi at α5β3γ2 GABAA R was above 7.00.

As to `COc1ccc2c(c1)-c1nn(C)cc1Cc1c(-c3noc(CC4COC4)n3)ncn1-2` [Compound 366], at α5β3γ2 GABAA R, the pKi was above 7.00.

Molecule `COC(C)(C)c1noc(-c2ncn3c2Cc2cn(CC4CCOC4)nc2-c2cc(Cl)ccc2-3)n1` (centres unmarked) [Compound 367] showed a pKi on α5β3γ2 GABAA R above 7.00. The same measure, in the same setting: to `COc1ccc2c(c1)-c1nn(C)cc1Cc1c(-c3noc(CN4CCCC4=O)n3)ncn1-2` [Compound 368] belongs 6.00 to 7.00; to `COc1ccc2c(c1)-c1nn(C)cc1Cc1c(-c3noc(CCN4CCCC4=O)n3)ncn1-2` [Compound 369], above 7.00; to `COc1ccc2c(c1)-c1nn(C)cc1Cc1c(-c3noc(C4(OC(C)C)CC4)n3)ncn1-2` [Compound 370], above 7.00.

At α5β3γ2 GABAA R, `Cn1cc2c(n1)-c1cc(Cl)ccc1-n1cnc(-c3noc(Cn4cccc4)n3)c1C2` [Compound 371] had a pKi above 7.00. The same measure, in the same setting: to `Cn1cc2c(n1)-c1cc(Cl)ccc1-n1cnc(-c3noc(Cn4cccn4)n3)c1C2` [Compound 372] belongs above 7.00; to `Cn1cc2c(n1)-c1cc(Cl)ccc1-n1cnc(-c3noc(Cn4ccnc4)n3)c1C2` [Compound 373], above 7.00; to `COc1ccc2c(c1)-c1nn(CC3CCOC3)cc1Cc1c(-c3noc(C(C)(C)OC)n3)ncn1-2` (centres unmarked) [Compound 374], above 7.00. Still for that read-out and setting: the value for `COc1ccc2c(c1)-c1c(cnn1CC1CCOC1)Cc1c(-c3noc(C(C)(C)OC)n3)ncn1-2` (centres unmarked) [Compound 375] was above 7.00; that for `COc1ccc2c(c1)-c1nn(C)cc1Cc1c(-c3noc(C(C)(C)CO)n3)ncn1-2` [Compound 376] was above 7.00; that for `COCC(C)(C)c1nc(-c2ncn3c2Cc2cn(C)nc2-c2cc(OC)ccc2-3)no1` [Compound 377] was above 7.00. On the same count and under the same terms, the value for `COc1ccc2c(c1)-c1nn(C)cc1Cc1c(-c3nc(CN(C)C(C)=O)co3)ncn1-2` [Compound 378] was 6.00 to 7.00; that for `COc1ccc2c(c1)-c1nn(C)cc1Cc1c(-c3nc(CN4CCCC4=O)co3)ncn1-2` [Compound 379] was above 7.00. `COc1ccc2c(c1)-c1nn(C)cc1Cc1c(-c3nc(CN(C(C)C)C(C)C)co3)ncn1-2` [Compound 380]: the pKi on α5β3γ2 GABAA R is above 7.00. For the molecule `COc1ccc2c(c1)-c1nn(C)cc1Cc1c(-c3nc(CN(C(C)=O)C(C)C)co3)ncn1-2` [Compound 381], the pKi on α5β3γ2 GABAA R (setting [1]) is above 7.00. In turn, `Cn1cc2c(n1)-c1cc(Cl)ccc1-n1cnc(-c3noc(CN4CCCC4=O)n3)c1C2` [Compound 382] had a pKi on α5β3γ2 GABAA R above 7.00.

For the molecule `Cn1cc2c(n1)-c1cc(Cl)ccc1-n1cnc(-c3noc(CCN4CCCC4=O)n3)c1C2` [Compound 383], the pKi at α5β3γ2 GABAA R (setting [1]) was above 7.00.

At α5β3γ2 GABAA R, `COc1ccc2c(c1)-c1nn(C)cc1Cc1c(-c3noc(C4(O)CCCC4)n3)ncn1-2` [Compound 384] had a pKi above 7.00. On the same count and under the same terms, the value for `Cn1cc2c(n1)-c1cc(Cl)ccc1-n1cnc(-c3noc(CCN4CCCC4)n3)c1C2` [Compound 385] was above 7.00. `CC(=O)N(C)Cc1noc(-c2ncn3c2Cc2cn(C)nc2-c2cc(Cl)ccc2-3)n1` [Compound 386] gave a pKi at α5β3γ2 GABAA R (setting [1]) above 7.00.

`COCCc1nc(-c2ncn3c2Cc2cn(C)nc2-c2cc(Cl)ccc2-3)no1` [Compound 387] showed a pKi at α5β3γ2 GABAA R above 7.00. At α5β3γ2 GABAA R, `COc1ccc2c(c1)-c1nn(C)cc1Cc1c(-c3noc(C(C)(C)O)n3)ncn1-2` [Compound 388] showed a pKi above 7.00.

For orientation: pKi means −log10 of the Ki, conventionally taken in molar units. Higher therefore signals a low Ki.
